Values of other authors as cited in patent publication US11154501B2, “Method of enhancing the efficacy and stability of ingredients in suspensions” (Nanophase Technologies Corporation, priority 2019, dated 2021).

Settings: for solubility limit: in water at 25° C.

SMILES	solubility (in words) (in neutral water)	solubility limit
O.O.O=c1c(O)c(-c2ccc(O)c(O)c2)oc2cc(O)cc(O)c12 [quercetin dihydrate]	very poorly soluble	
NC(=O)NC1NC(=O)NC1=O (stereo not drawn) [allantoin, (2,5-dioxo-4-imidazolidinyl) urea, reference compound]		0.5%
C[C@@H]1O[C@@H](OC[C@H]2O[C@@H](Oc3c(-c4ccc(O)c(O)c4)oc4cc(O)cc(O)c4c3=O)[C@H](O)[C@@H](O)[C@@H]2O)[C@H](O)[C@H](O)[C@H]1O [rutin]		0.013%
